Experimental data: patent publication EP0606463B1, “NEUROMEDIN B RECEPTOR ANTAGONISTS” (The Administrators of The Tulane Educational Fund, priority 1992, dated 1994)
Where a SMILES comes first, the peptide text is derived from it. Bridges are numbered along the chain shown (N, C = ends). [ ]: non-standard residue; d: D form. 2Nal = N[C@@H](Cc1ccc2ccccc2c1)C(=O)O; d2Nal = N[C@H](Cc1ccc2ccccc2c1)C(=O)O; Lys(iPr) = CC(C)NCCCC[C@H](N)C(=O)O

Assays:
NMB Receptor = target: T1, NMB Receptor (Rattus norvegicus, UniProt P24053); assay: [3H]inositol phosphates (IP) in NMB-R transfected cells; format: cell-based; details: for NMB-R Transfected Cells [^3H]IP Alone (10 µ M): analog 10 µM alone, no-additive control 13 ± 3; for NMB-R Transfected Cells [^3H]IP Plus NMB (3 nM): analog 10 µM plus NMB 3 nM, NMB without analog 186 ± 58; for effect on NMB-stimulated increase in [^3H]IP: NMB-R transfected cells, 3 nM NMB, peptide 10 µM
T1 construct: a full length NMB-preferring bombesin receptor clone generated from rat esophagus; expressed in transfected cells; host or cells: BALB 3T3 cells
T1 sequence (P24053 1-390): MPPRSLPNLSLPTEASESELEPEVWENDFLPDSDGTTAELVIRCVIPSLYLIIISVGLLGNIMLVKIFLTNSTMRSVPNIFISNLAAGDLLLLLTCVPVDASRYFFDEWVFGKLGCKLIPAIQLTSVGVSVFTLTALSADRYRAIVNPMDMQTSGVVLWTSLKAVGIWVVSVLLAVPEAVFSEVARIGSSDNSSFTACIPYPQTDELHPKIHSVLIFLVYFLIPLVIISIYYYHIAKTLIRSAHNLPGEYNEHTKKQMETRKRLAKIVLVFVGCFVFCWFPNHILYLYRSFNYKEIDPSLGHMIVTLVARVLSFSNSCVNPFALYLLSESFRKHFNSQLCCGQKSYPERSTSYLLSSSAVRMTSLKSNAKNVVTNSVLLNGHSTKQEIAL
Procedure: As described previously [Wada, E., et al. Neuron 6:421 (1991)], BALB 3T3 cells expressing a stably transfected rat NMB receptor (NMB-R transfected cells) were obtained using calcium phosphate precipitation of a full length NMB-preferring bombesin receptor clone generated from rat esophagus and subcloned into a modified version of the pCD2 plasmid. Cells were passaged every 3-4 days at confluence, using 0.1% trypsin in 1 mM EDTA. Rat glioblastoma C-6 tumor cells were maintained similarly and were passaged weekly at confluence. Both cell lines were cultured at 37°C in a 5% CO2 atmosphere. Rat AR 42J pancreatic acinar cells were cultured in Dulbecco's modified Eagle's medium (DMEM) without antibiotics and supplemented with 10% (vol/vol) fetal calf serum. The incubation atmosphere consisted of 10% CO2-90% humidified air at 37°C.
Total phosphoinositides in C-6 cells and in NMB-R transfected cells were determined as described previously, with minor modifications [Benya, R. V. et al. Mol. Pharmacol. 42:1058 (1992); and Wang, L-H. et al. Biochem. J. 286:641 (1992)]. Cells were grown to confluence in 24-well plates and then loaded with 100 µCi/ml myo-[2-^3H]inositol in Dulbecco's modified essential medium with 2% fetal bovine serum at 37°C for 48 hrs. Cells were washed and incubated in phosphoinositide buffer (standard buffer additionally containing 10 mM LiCl, 20 mM HEPES, 2 mM CaCl2, 2% BSA, and 1.2 mM MgSO4) for 15 min and then for 60 min at 37°C with agonists at various concentrations or with 3 nM NMB (a half-maximal effective concentration) and possible antagonists at different concentrations. Reactions were halted using ice-cold 1% HCl in methanol, and the inositol phosphates (IP) were isolated as described previously [Bologna, M. et al. Cancer 63:1714 (1989); and Endo, T. et al. J. Endocrinol. 131:313 (1991)]. Briefly, after loading of the anion exchange column, free [^3H]glycerophosphorylinositol was removed by washing with 5 mM disodium tetraborate in 60 mM sodium formate. Total [^3H]inositol phosphates were then eluted using 100 mM formic acid in 1.0 M ammonium formate as described previously [Benya, R. V. et al. Mol. Pharmacol. 42:1058 (1992); and Wang, L-H. et al. Biochem. J. 286:641 (1992)].

GRP Receptor = target: T2, GRP Receptor (Rattus norvegicus, UniProt P52500); assay: Amylase release from rat pancreatic acini; format: cell-based; details: for Rat Pancreatic Acini Amylase Release Alone (10µM): analog 10 µM alone, no-additive control 4 ± 1; for Rat Pancreatic Acini Amylase Release Plus Bn(0.3 nM): analog 10 µM plus Bn 0.3 nM, Bn without analog 15 ± 1
T2 construct: from tissue; host or cells: dispersed pancreatic acini
T2 sequence (P52500 whole entry): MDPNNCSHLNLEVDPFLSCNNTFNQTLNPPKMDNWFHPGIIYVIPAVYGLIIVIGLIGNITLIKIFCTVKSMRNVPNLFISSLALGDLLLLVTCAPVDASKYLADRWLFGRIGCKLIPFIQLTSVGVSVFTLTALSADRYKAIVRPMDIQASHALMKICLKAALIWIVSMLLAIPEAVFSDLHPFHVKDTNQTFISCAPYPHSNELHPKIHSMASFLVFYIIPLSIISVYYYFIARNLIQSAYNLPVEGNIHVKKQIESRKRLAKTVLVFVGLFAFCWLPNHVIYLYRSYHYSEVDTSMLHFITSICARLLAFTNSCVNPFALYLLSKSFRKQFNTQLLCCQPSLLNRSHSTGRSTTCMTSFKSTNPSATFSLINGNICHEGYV

rat NMB receptor = target: T3, rat NMB receptor (Rattus norvegicus, UniProt P24053); assay: Binding of 125I-[D-Tyr0]NMB to NMB-R transfected BALB 3T3 cells; details: for fold by which cyclo SS-octa was more potent than the analog: inhibition of ^125I-[Tyr^0]NMB binding to NMB-R transfected cells; for decrease in NMB receptor affinity compared with #1: structure-function comparison of Table 1 values
T3 construct: a full length NMB-preferring bombesin receptor clone generated from rat esophagus; expressed in transfected cells; host or cells: BALB 3T3 cells
T3 sequence (P24053 1-390): T1 sequence (P24053 1-390)
Procedure: Cells were passaged every 3-4 days at confluence, using 0.1% trypsin in 1 mM EDTA. Rat glioblastoma C-6 tumor cells were maintained similarly and were passaged weekly at confluence. Both cell lines were cultured at 37°C in a 5% CO2 atmosphere. Rat AR 42J pancreatic acinar cells were cultured in Dulbecco's modified Eagle's medium (DMEM) without antibiotics and supplemented with 10% (vol/vol) fetal calf serum. The incubation atmosphere consisted of 10% CO2-90% humidified air at 37°C.

Structure (SMILES)	NMB-R Transfected Cells [^3H]IP Alone (10 µ M) (NMB Receptor)	NMB-R Transfected Cells [^3H]IP Plus NMB (3 nM) (NMB Receptor)	Rat Pancreatic Acini Amylase Release Alone (10µM) (GRP Receptor)	Rat Pancreatic Acini Amylase Release Plus Bn(0.3 nM) (GRP Receptor)	fold by which cyclo SS-octa was more potent than the analog (rat NMB receptor)	effect on NMB-stimulated increase in [^3H]IP (NMB Receptor)	decrease in NMB receptor affinity compared with #1 (rat NMB receptor)	fold greater affinity for the NMB than the GRP receptors (rat NMB receptor; NMB-R transfected cells versus GRP receptors on rat pancreatic acini)
CC(C)[C@@H]1NC(=O)[C@H](CCCCN)NC(=O)[C@@H](Cc2c[nH]c3ccccc23)NC(=O)[C@H](Cc2ccc(O)cc2)NC(=O)[C@@H](NC(=O)[C@H](N)Cc2ccccc2)CSSC[C@@H](C(=O)N[C@@H](Cc2ccc3ccccc3c2)C(N)=O)NC1=O [Analog #4, [D-Phe^1]-cyclo SS-octa] (H-[dF]CY[dW]KVC[2Nal]-NH2; disulfide 2-7; N-terminus assumed)	13 ± 1 dpm x 10^3	33 ± 4 dpm x 10^3	4 ± 2 % total	14 ± 1 % total	4 fold			
C[C@@H](O)[C@H](NC(=O)[C@@H]1CSSC[C@H](NC(=O)[C@H](N)Cc2ccc3ccccc3c2)C(=O)N[C@@H](Cc2ccc(O)cc2)C(=O)N[C@H](Cc2c[nH]c3ccccc23)C(=O)N[C@@H](CCCCN)C(=O)N[C@@H]([C@@H](C)O)C(=O)N1)C(N)=O [Analog #6, [Thr^6,8]-cyclo-SS-octa]	11 ± 2 dpm x 10^3	188 ± 30 dpm x 10^3	3 ± 1 % total	14 ± 2 % total	69 fold	had no effect		
C[C@@H](O)[C@@H]1NC(=O)[C@H](CCCCN)NC(=O)[C@@H](Cc2c[nH]c3ccccc23)NC(=O)[C@H](Cc2ccc(O)cc2)NC(=O)[C@@H](NC(=O)[C@H](N)Cc2ccccc2)CSSC[C@@H](C(=O)N[C@@H](Cc2ccc3ccccc3c2)C(N)=O)NC1=O [Analog #7, [D-Phe^1, Thr^6]-cyclo-SS-octa] (H-[dF]CY[dW]KTC[2Nal]-NH2; disulfide 2-7; N-terminus assumed)	15 ± 1 dpm x 10^3	99 ± 24 dpm x 10^3	3 ± 1 % total	16 ± 1 % total	18 fold			
CC(C)[C@@H]1NC(=O)[C@H](CCCCN)NC(=O)[C@@H](Cc2c[nH]c3ccccc23)NC(=O)[C@H](Cc2ccc(O)cc2)NC(=O)[C@@H](NC(=O)[C@H](N)Cc2ccc3ccccc3c2)CSSC[C@@H](C(=O)N[C@H](Cc2ccc3ccccc3c2)C(N)=O)NC1=O [Analog #8, [D-Nal^8]-cyclo SS-octa] (H-[d2Nal]CY[dW]KVC[d2Nal]-NH2; disulfide 2-7; N-terminus assumed)	10 ± 3 dpm x 10^3	67 ± 13 dpm x 10^3	2 ± 1 % total	14 ± 1 % total	9 fold		6 fold	
CC(C)[C@@H]1NC(=O)[C@H](CCCCN)NC(=O)[C@@H](Cc2c[nH]c3ccccc23)NC(=O)[C@H](Cc2ccc(O)cc2)NC(=O)[C@@H](NC(=O)[C@@H](N)Cc2ccc3ccccc3c2)CSSC[C@@H](C(=O)N[C@H](Cc2ccc3ccccc3c2)C(N)=O)NC1=O [Analog #9, [Nal^1,D-Nal^8]-cyclo SS-octa] (H-[2Nal]CY[dW]KVC[d2Nal]-NH2; disulfide 2-7; N-terminus assumed)	8 ± 2 dpm x 10^3	28 ± 6 dpm x 10^3	3 ± 1 % total	16 ± 1 % total	6 fold			
CC(C)[C@@H]1NC(=O)[C@H](CCCCN)NC(=O)[C@@H](Cc2c[nH]c3ccccc23)NC(=O)[C@H](Cc2ccc(O)cc2)NC(=O)[C@H](NC(=O)[C@H](N)Cc2ccc3ccccc3c2)CSSC[C@@H](C(=O)N[C@@H](Cc2ccc3ccccc3c2)C(N)=O)NC1=O [Analog #10, [D-Cys^2]-cyclo SS-octa] (H-[d2Nal][dC]Y[dW]KVC[2Nal]-NH2; disulfide 2-7; N-terminus assumed)	10 ± 3 dpm x 10^3	4 ± 2 dpm x 10^3	3 ± 1 % total	16 ± 1 % total	6 fold	completely inhibited	5 fold	
CC(C)[C@@H]1NC(=O)[C@H](CCCCN)NC(=O)[C@@H](Cc2c[nH]c3ccccc23)NC(=O)[C@H](Cc2ccc(O)cc2)NC(=O)[C@@H](NC(=O)[C@H](N)Cc2c[nH]c3ccccc23)CSSC[C@@H](C(=O)N[C@@H](Cc2ccc3ccccc3c2)C(N)=O)NC1=O [Analog #12, [D-Trp^1]-cyclo SS-octa] (H-[dW]CY[dW]KVC[2Nal]-NH2; disulfide 2-7; N-terminus assumed)	9 ± 2 dpm x 10^3	43 ± 2 dpm x 10^3	3 ± 1 % total	13 ± 1 % total	9 fold			
NCCCC[C@@H]1NC(=O)[C@@H](Cc2c[nH]c3ccccc23)NC(=O)[C@H](Cc2ccc(O)cc2)NC(=O)[C@@H](NC(=O)[C@H](N)Cc2ccc3ccccc3c2)CSSC[C@@H](C(=O)N[C@@H](Cc2ccc3ccccc3c2)C(N)=O)NC(=O)[C@H](Cc2ccccc2)NC1=O [Analog #13, [Phe^6]-cyclo SS-octa] (H-[d2Nal]CY[dW]KFC[2Nal]-NH2; disulfide 2-7; N-terminus assumed)	10 ± 1 dpm x 10^3	9 ± 4 dpm x 10^3	3 ± 1 % total	14 ± 1 % total	2 fold	completely inhibited		> 100 fold
CC(C)NCCCC[C@@H]1NC(=O)[C@@H](Cc2c[nH]c3ccccc23)NC(=O)[C@H](Cc2ccc(O)cc2)NC(=O)[C@@H](NC(=O)[C@H](N)Cc2ccccc2)CSSC[C@@H](C(=O)N[C@@H](Cc2ccc3ccccc3c2)C(N)=O)NC(=O)[C@H]([C@@H](C)O)NC1=O [Analog #15, [D-Phe^1, Lys(iPr)^5, Thr^6]-cyclo SS-octa] (H-[dF]CY[dW][Lys(iPr)]TC[2Nal]-NH2; disulfide 2-7; N-terminus assumed)	11 ± 1 dpm x 10^3	67 ± 7 dpm x 10^3	4 ± 2 % total	13 ± 2 % total	9 fold			
C[C@@H](O)[C@H](NC(=O)[C@@H]1CSSC[C@H](NC(=O)[C@H](N)Cc2ccc3ccccc3c2)C(=O)N[C@@H](Cc2ccccc2)C(=O)N[C@H](Cc2c[nH]c3ccccc23)C(=O)N[C@@H](CCCCN)C(=O)N[C@@H]([C@@H](C)O)C(=O)N1)C(N)=O [Analog #18, [Phe^3, Thr^6,8]-cycle SS-octa] (H-[d2Nal]CF[dW]KTCT-NH2; disulfide 2-7)	11 ± 1 dpm x 10^3	143 ± 11 dpm x 10^3				had no effect		
